We go through four molecules from article PMC7179653 (Antimicrobial Agents and Chemotherapy, 2020).

Where two headings read alike, the source gives them in different places.

Details of data set [1]: method as in PMID 25813217, PMID 29914955, PMID 27527080, PMID 29437614. The following applies: healthy individuals; cited from earlier work.
The next data set in a line: clinical. The conditions noted are these: human, in vivo. On the procedure: All participants in the active group received a single 2,000-mg dose of both drugs on day 3 and q8h on days 4 to 8, with a final single dose of both drugs on the morning of day 9. A washout period of approximately 24 h between treatments was provided. Study treatments were administered as 30-min (SAD study) or 90-min (MAD study) i.v. infusions, the latter to investigate the pharmacokinetics using a longer infusion time, which is commonly used to increase the time above the MIC of β-lactams ([15]). The choice of a 90-min infusion time for the MAD study was dictated by the stability and toxicology data available at the time the study was being designed. […] Safety assessments included monitoring of AEs, laboratory safety tests (hematology, serum chemistry, and urinalysis), 12-lead ECG (discrete recordings and 24-h Holter recording), and vital signs (blood pressure, pulse rate, and body temperature). In the SAD study, safety assessments were performed predose at screening, at day 1, postdose periodically on days 1, 2, and 7 (follow-up), and at early withdrawal, if relevant. […] In the MAD study, safety assessments were done predose at screening, at day 2, postdose periodically on days 1, 2, 4, 7, and 8, on days 13 to 15 (follow-up), and at early withdrawal, if relevant. […] On all other days, a single predose sample was collected for pharmacokinetic evaluation prior to the morning infusion. Blood was collected into lithium-heparin tubes and stored at a nominal –80°C temperature until analysis.

As usually defined, the half-life is how long it takes for the measured level to halve. As for `NC(=O)[C@@H]1CC[C@@H]2CN1C(=O)N2OS(=O)(=O)O` [avibactam], the half-life result in data set [1] is “approximately 2 h”.
Broadly, the Tmax is the time at which the peak concentration occurs. The clearance is a measure of how efficiently the substance is removed, as volume per time. By Vd is commonly meant the apparent volume that relates the amount in the body to the concentration in plasma or blood. On to `C[C@@H](O)[C@H]1C(=O)N2C(C(=O)O)=C(S[C@@H]3CN[C@H](C(=O)N(C)C)C3)[C@H](C)[C@H]12` [meropenem], for which the Tmax in the data set “clinical” worked out at 1 h. The clearance in “clinical” (CL) is 253 mL/min. The molecule further had a CL renal in “clinical” (CLr) of 161 mL/min. Also, the volume of distribution (Vd) in the data set “clinical” (Vdss) worked out at 19.8 L. For the same molecule, in the data set “clinical” (t1/2), the half-life was 1.3 h.
For the molecule `O=C(NC1CCNCC1)[C@@H]1CC[C@@H]2CN1C(=O)N2OS(=O)(=O)O` [relebactam], in data set [1], the half-life result was “approximately 2 h”.
As to `O=C(O)C[C@@H]1CC[C@H](NC(=O)Cc2cccs2)B(O)O1` [vaborbactam], in data set [1], the half-life result is reported as “approximately 2 h”.
